Source: patent US6177425A, “Pyrrolopyrrolone derivatives” (Glaxo Wellcome Inc., priority 1997, dated 2001)
Structures can show the parent of a compound that is named as a salt.

Target: T1, human neutrophil elastase (Homo sapiens, UniProt P08246)
T1 sequence (P08246 30-247 limits assumed): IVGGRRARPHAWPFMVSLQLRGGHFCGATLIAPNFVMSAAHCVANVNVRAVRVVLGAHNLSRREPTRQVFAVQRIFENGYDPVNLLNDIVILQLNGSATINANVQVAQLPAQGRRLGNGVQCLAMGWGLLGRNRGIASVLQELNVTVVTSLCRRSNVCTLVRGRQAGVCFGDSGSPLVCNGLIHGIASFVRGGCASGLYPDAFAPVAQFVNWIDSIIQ
Experiment: In vitro Assays of Human Neutrophil Elastase
Format: biochemical
Settings: purified human neutrophil elastase 11.8 nM, pH 8.6, 15 min incubation at 30° C., 0.6 mM MeO-succinyl-alanyl-alanyl-prolyl-valyl-p-nitroanilide, 405 nm
Description: In vitro Assays of Human Neutrophil Elastase Assay contents: 50 mM Tris/HCl (pH 8.6) 150 mM NaCl 11.8 nM purified human neutrophil elastase Suitable concentrations of compound under test diluted with water from a 10 mM stock solution in dimethylsulphoxide. Values above are final concentrations after the addition of substrate solution (see below). The mixture above is incubated for fifteen minutes at 30° C. at which time the remaining elastase activity is measured for 10 minutes in a BioTek 340i plate-reader, after the addition of 0.6 mM MeO-succinyl-alanyl-alanyl-prolyl-valyl-p-nitroanilide. The rate of increase in absorbance at 405 nm is proportional to elastase activity. Enzyme activity is plotted against concentration of inhibitor and an IC50 determined using curve fitting software. 1. The compounds of Examples 1 to 7 were tested in the in vitro elastase test described earlier in the description.

IC50 [µM] | Structure (SMILES)
0.227 | CCC[C@H]1C(=O)N(S(C)(=O)=O)[C@H]2CN(C(=O)C=CCN3CCCCC3)C[C@H]12 (relative stereo) [Example 1, rel-(3R,3aS,6aR)-1-Methanesulfonyl-5-(4-piperidin-1-yl-but-2-enoyl)-3-propyl-hexahydro-pyrrolo[3,4-b]pyrrol-2-one hydrochloride]
0.9 | CCC[C@H]1C(=O)N(S(C)(=O)=O)[C@H]2CN(C(=O)CCCN3CCCCC3)C[C@H]12 (relative stereo) [Example 2, rel-(3R,3aS,6aR)-1-Methanesulfonyl-5-(4-piperidin-1-yl-butyryl)-3-propyl-hexahydro-pyrrolo[3,4-b]pyrrol-2-one]
0.229 | CCC[C@H]1C(=O)N(S(C)(=O)=O)[C@H]2CN(S(=O)(=O)c3ccc(NC(C)=O)cc3)C[C@H]12 (relative stereo) [Example 3, rel-N-[4-(1-Methanesulfonyl-2-oxo-3R-propylhexahydro-(3aS,6aR)-pyrrolo[3,4-b]pyrrole-5-sulfonyl)-phenyl]acetamide]
0.296 | CCC[C@H]1C(=O)N(S(C)(=O)=O)[C@H]2CN(C(=O)c3ccc(CN4CCCCC4)cc3)C[C@H]12 (relative stereo) [Example 4, rel-(3R,3aS,6aR)-1-Methanesulfonyl-5-(4-piperidin-1-ylmethyl-benzoyl)-3-propyl-hexahydro-pyrrolo[3,4-b]pyrrol-2-one hydrochloride]
0.222 | CCC[C@H]1C(=O)N(S(C)(=O)=O)[C@H]2CN(C(=O)c3ccc(CN4CCOCC4)cc3)C[C@H]12 (relative stereo) [Example 5, rel-(3R,3aS,6aR)-1-Methanesulfonyl-5-(4-morpholin-4-ylmethyl-benzoyl)-3-propyl-hexahydro-pyrrolo[3,4-b]pyrrol-2-one hydrochloride]
0.146 | CCC[C@H]1C(=O)N(S(C)(=O)=O)[C@H]2CN(C(=O)c3cc(CN4CCOCC4)on3)C[C@H]12 (relative stereo) [Example 6, rel-(3R,3aS,6aR)-1-Methanesulfonyl-5-(5-morpholin-4-ylmethyl-isoxazole-3-carbonyl)-3-propyl-hexahydro-pyrrolo[3,4-b]pyrrol-2-one hydrochloride]
0.399 | CCC[C@H]1C(=O)N(S(C)(=O)=O)[C@H]2CN(C(=O)c3cc(CN(C)C)on3)C[C@H]12 (relative stereo) [Example 7, rel-(3R,3aS,6aR)-5-(5-Dimethylaminomethyl-isoxazole-3-carbonyl)-1-methanesulfonyl-3-propyl-hexahydro-pyrrolo[3,4-b]pyrrol-2-one hydrochloride]
